# Results as given in patent US12458647B2, “Macrocyclic derivative and use thereof” (Guangzhou Joyo Pharmatech Co., Ltd., priority 2022, dated 2025).
# Legend:
# [1] = tested on: p-ERK level in AsPC-1 cells; assay: Detection of p-ERK level in AsPC-1 cells (HTRF); type: cell-based; conditions: 3 hours incubation; read-out: AsPC-1 pERK IC50
# Experimental: AsPC-1 cells were purchased from ATCC: RPMI-1640 medium was purchased from Gibco; fetal bovine serum was purchased from Hyclone; Advanced Phospho-ERK1/2(THR202/TYR204) KIT was purchased from Bioauxilium-Advanced Phospho; ERK1/2(THR202/TYR204) KIT components were: Advanced PhosphoERK1/2 Eu Cryptate antibody, Advanced PhosphoERK1/2 d2 antibody, Blocking reagent (stock solution 100×), Lysis buffer #1 (stock solution 4×). Detection buffer (ready-to-use), with a storage temperature of ≤−16° C. for all.
# (1) The cells were seeded in a white-bottomed 384-well cell culture plate, 8 μL of cell suspension per well, each well containing 7,500 cells. The cell plate was placed in a carbon dioxide incubator and incubated overnight at 37° C.;
# (2) The test compound was diluted with 100% DMSO to 3 mM as the first concentration, and then diluted with a pipette to 10 concentrations of 3,000, 1,000, 300, 100, 30, 10, 3, 1, 0.3 and 0.1 μM. 2 μL of the compound was taken and added to 198 μL of cell starvation medium, mixed well, 15 μl, of compound solution was taken and added to 35 μL of cell starvation medium and mixed well. […]
# (5) After incubation, a multilabel plate reader was used to read the HTRF excitation: 320 nm, emission: 615 nm, and 665 nm. […]
# SW620 cells = assay: In vitro cell proliferation experiment (5 days), SW620; type: cell-based; conditions: SW620, 5 days; read-out: Inhibitory Activity IC50
# Experimental: RPMI 1640 medium, DMEM, Ham's F12 medium, F12K medium, IMDM and penicillin/streptomycin antibiotics were purchased from Gibco, fetal bovine serum was purchased from Hyclone, Envision multilabel plate reader (PerkinElmer). […]
# The test compound was diluted by 5-fold to 8 concentrations with a pipette, i.e., from 2 mM to 25.6 nM, and replicate wells were set up for the experiment. […] Another cell plate was prepared, and the signal value was read as the maximum value (the maximum value in the following equation) on the day of dosing for data analysis.
# 50 μL of cell viability chemiluminescent detection reagent was added to the cell plate and incubated at room temperature for 30 minutes to stabilize the luminescence signal. A multilabel plate reader was used for reading. […]
smiles,measurement,setting,value
"CCn1c(-c2cc(N3CCN(C)CC3)cnc2C(C)OC)c2c3cc(ccc31)-c1csc(n1)CC(NC(=O)C1C(C)C1C)C(=O)N1NC(C(=O)OCC(C)(C)C2)C2CC1C2 (single isomer, unassigned) [Compound 6A]",IC50,[1],0.3 nM
same,IC50,SW620 cells,0.2 nM
